# System: hESCs
# Assay: Microarray analysis of hESCs grown 36 h in CDM alone or CDM plus BMP4
# Assay type: cell-based, human
# Details: hESCs 36 h, CDM plus 10 ng/ml BMP4 vs CDM alone
# Excerpt: The change in RNA expression of genes associated with particular cell types is indicated in the following panels. […] In all tables, the ‘margin’ value represents the fold change in mRNA expression (log 2 scale) with a negative value indicating down regulation after BMP4 treatment compared to CDM alone.
# Sample RNA was hybridized to Affymetrix hg-u133+2 GeneChips ©. All sample arrays were background corrected, normalized and summarized using default parameters of the RMA model. Array processing was performed using the affy package of the Bioconductor (found on the world wide web at the hypertext protocol transfer address of “bioconductor.org”) suite of software for the R statistical programming language (found on the world wide web at the hypertext protocol transfer address of “r-project.org”). The resulting data set contained processed gene expression values for 54675 probe-sets. Analysis of Differential Regulation: The moderated t-statistic […], implemented in the Limma package of Bioconductor, was employed to assess the significance of differential gene (probe-set) expression between sample groups. In order to reduce errors associated with multiple hypothesis testing on such a scale, the significance p-values obtained were converted to corrected q-values using the FDR method.
# Data Visualisation: Heat maps of gene expression were created by importing relevant subsets of RMA processed microarray gene expression data into the dChip v1.3 microarray analysis package (found on the world wide web at the hypertext protocol transfer address of “biostat.harvard.edu/complab/dchip/”). In the case wherein a gene is represented by more than one probe-set on the array, a single probe-set was chosen to represent gene expression in the heat map according to highest mean expression over all samples (i.e. the most reliable sample hybridization regardless of group membership).
substance,measurement,value
BMP4: Bone Morphogenetic Protein 4 growth factor,"Margin, ACTC mRNA",4.16 log 2 scale
same,"Margin, ADRA2A mRNA",−2.49 log 2 scale
same,"Margin, AGTRL1 mRNA",4.35 log 2 scale
same,"Margin, AK3 mRNA",−2.55 log 2 scale
same,"Margin, ARGBP2 mRNA",−3.43 log 2 scale
same,"Margin, BAMBI mRNA",3.86 log 2 scale
same,"Margin, C2orf31 mRNA",−2.72 log 2 scale
same,"Margin, C10orf13 mRNA",−2.63 log 2 scale
same,"Margin, C14orf29 mRNA",−2.44 log 2 scale
same,"Margin, CACNA2D3 mRNA",−2.42 log 2 scale
same,"Margin, CDH11 mRNA",3.81 log 2 scale
same,"Margin, CFC1 mRNA",4.45 log 2 scale
same,"Margin, CHST9 mRNA",−2.54 log 2 scale
same,"Margin, CLIC5 mRNA",5.04 log 2 scale
same,"Margin, COL3A1 mRNA",4.47 log 2 scale
same,"Margin, CRH mRNA",5.13 log 2 scale
same,"Margin, CUZD1 mRNA",−2.4 log 2 scale
same,"Margin, CYP26A1 mRNA",−2.51 log 2 scale
same,"Margin, D21S2088E mRNA",−2.67 log 2 scale
same,"Margin, DIO2 mRNA",4.29 log 2 scale
same,"Margin, DKK4 mRNA",−3.09 log 2 scale
same,"Margin, DLX2 mRNA",6.43 log 2 scale
same,"Margin, DLX5 mRNA",4.04 log 2 scale
same,"Margin, DLX6 mRNA",4.66 log 2 scale
same,"Margin, EFNA1 mRNA",4.35 log 2 scale
same,"Margin, EPAS1 mRNA",6.2 log 2 scale
same,"Margin, ETV1 mRNA",−2.49 log 2 scale
same,"Margin, FLJ25477 mRNA",4.77 log 2 scale
same,"Margin, FLJ90231 mRNA",−3.15 log 2 scale
same,"Margin, FOXA2 mRNA (splice variant)",−3.38 log 2 scale
same,"Margin, FOXF1 mRNA",4.84 log 2 scale
same,"Margin, GABRP mRNA",7.34 log 2 scale
same,"Margin, GATA3 mRNA",6.21 log 2 scale
same,"Margin, GATA5 mRNA",4 log 2 scale
same,"Margin, GDF3 mRNA",−3.47 log 2 scale
same,"Margin, GPR64 mRNA",−2.46 log 2 scale
same,"Margin, H19 mRNA",3.98 log 2 scale
same,"Margin, HAND1 mRNA",7.27 log 2 scale
same,"Margin, HAPLN1 mRNA",8.04 log 2 scale
same,"Margin, HESX1 mRNA",−2.36 log 2 scale
same,"Margin, HEY1 mRNA",3.93 log 2 scale
same,"Margin, HHEX mRNA",−2.58 log 2 scale
same,"Margin, HOXB6 mRNA",5.19 log 2 scale
same,"Margin, ID4 mRNA",5.47 log 2 scale
same,"Margin, IGFBP3 mRNA",4.44 log 2 scale
same,"Margin, IPO9 mRNA",−2.83 log 2 scale
same,"Margin, ISL1 mRNA",6.5 log 2 scale
same,"Margin, KAL1 mRNA",−2.98 log 2 scale
same,"Margin, KCND2 mRNA",−2.74 log 2 scale
same,"Margin, KCTD12 mRNA",4.01 log 2 scale
same,"Margin, KIAA0882 mRNA",3.81 log 2 scale
same,"Margin, KLF4 mRNA",−2.4 log 2 scale
same,"Margin, KRT7 mRNA",3.91 log 2 scale
same,"Margin, LCK mRNA",−2.65 log 2 scale
same,"Margin, LECT1 mRNA",−2.55 log 2 scale
same,"Margin, LEFTY1 mRNA",−6.56 log 2 scale
same,"Margin, LEFTY2 mRNA",−3.12 log 2 scale
same,"Margin, LIX1 mRNA",4.3 log 2 scale
same,"Margin, LOC152573 mRNA",−5.04 log 2 scale
same,"Margin, LOC153469 mRNA",−4.72 log 2 scale
same,"Margin, LOC387763 mRNA",4.25 log 2 scale
same,"Margin, LRAT mRNA",−4.97 log 2 scale
same,"Margin, LRIG1 mRNA",−2.82 log 2 scale
same,"Margin, LUM mRNA",5.88 log 2 scale
same,"Margin, MAL2 mRNA",−2.37 log 2 scale
same,"Margin, MEGF10 mRNA",−3.14 log 2 scale
same,"Margin, MEIS1 mRNA",4.02 log 2 scale
same,"Margin, MESP1 mRNA",4.03 log 2 scale
same,"Margin, MGC26963 mRNA",−4.02 log 2 scale
same,"Margin, MSX1 mRNA",4.28 log 2 scale
same,"Margin, MSX2 mRNA",5.43 log 2 scale
same,"Margin, MYOCD mRNA",4.49 log 2 scale
same,"Margin, NANOG mRNA",−3.22 log 2 scale
same,"Margin, NCRMS mRNA",−2.98 log 2 scale
same,"Margin, NFE2L3 mRNA",−2.74 log 2 scale
same,"Margin, NODAL mRNA",−2.93 log 2 scale
same,"Margin, NOG mRNA",4.37 log 2 scale
same,"Margin, OLIG3 mRNA",−3.9 log 2 scale
same,"Margin, OTX2 mRNA",−4.89 log 2 scale
same,"Margin, PAPLN mRNA",−3.53 log 2 scale
same,"Margin, PARG1 mRNA",4.04 log 2 scale
same,"Margin, PIPOX mRNA",−2.58 log 2 scale
same,"Margin, POSTN mRNA",5.83 log 2 scale
same,"Margin, PPP2R2B mRNA",−3.6 log 2 scale
same,"Margin, PRKD1 mRNA",3.91 log 2 scale
same,"Margin, PRSS12 mRNA",4.09 log 2 scale
same,"Margin, PTPRZ1 mRNA",−2.37 log 2 scale
same,"Margin, RAM2 mRNA",−2.8 log 2 scale
same,"Margin, RET mRNA",−2.97 log 2 scale
same,"Margin, RGS4 mRNA",3.85 log 2 scale
same,"Margin, RGS5 mRNA",4.46 log 2 scale
same,"Margin, RGS13 mRNA",4.42 log 2 scale
same,"Margin, SEMA3C mRNA",3.89 log 2 scale
same,"Margin, SFRP1 mRNA",−2.36 log 2 scale
same,"Margin, SFRP2 mRNA",−2.75 log 2 scale
same,"Margin, SLC1A6 mRNA",−2.39 log 2 scale
same,"Margin, SLC16A4 mRNA",4 log 2 scale
same,"Margin, SLC40A1 mRNA",4.19 log 2 scale
same,"Margin, SNAI2 mRNA",4.92 log 2 scale
same,"Margin, SOCS3 mRNA",3.98 log 2 scale
same,"Margin, SOX2 mRNA",−3.64 log 2 scale
same,"Margin, SOX7 mRNA",4.13 log 2 scale
same,"Margin, SYNPO2 mRNA",4.46 log 2 scale
same,"Margin, TBX3 mRNA",6.42 log 2 scale
same,"Margin, TFAP2A mRNA",4.98 log 2 scale
same,"Margin, TFCP2L2 mRNA",3.87 log 2 scale
same,"Margin, TFCP2L4 mRNA",4.92 log 2 scale
same,"Margin, THBS2 mRNA",−3.73 log 2 scale
same,"Margin, TIMP4 mRNA",−2.9 log 2 scale
same,"Margin, TMEM46 mRNA",−3.57 log 2 scale
same,"Margin, TOX mRNA",−3.03 log 2 scale
same,"Margin, TRIM55 mRNA",4.24 log 2 scale
same,"Margin, TRPC4 mRNA",−2.52 log 2 scale
same,"Margin, UGT8 mRNA",−3.57 log 2 scale
same,"Margin, USP44 mRNA",−3.63 log 2 scale
same,"Margin, UTF1 mRNA",−2.47 log 2 scale
